Test results taken from patent publication US8993756B2 (Merck Sharp & Dohme Corp., priority 2011, dated 2015).

Experiments:
JAK3 = JAK3 (Homo sapiens (Human), UniProt P52333); experiment: Jak Biochemical HTRF Assay (JAK3); conditions: recombinant GST-tagged catalytic domain, [ATP] 2.9 μM
JAK2 = JAK2 (Homo sapiens (Human), UniProt O60674); experiment: Jak Biochemical HTRF Assay (JAK2); conditions: recombinant GST-tagged catalytic domain, [ATP] 8.5 μM
Sequence of JAK2 (O60674 849-1124): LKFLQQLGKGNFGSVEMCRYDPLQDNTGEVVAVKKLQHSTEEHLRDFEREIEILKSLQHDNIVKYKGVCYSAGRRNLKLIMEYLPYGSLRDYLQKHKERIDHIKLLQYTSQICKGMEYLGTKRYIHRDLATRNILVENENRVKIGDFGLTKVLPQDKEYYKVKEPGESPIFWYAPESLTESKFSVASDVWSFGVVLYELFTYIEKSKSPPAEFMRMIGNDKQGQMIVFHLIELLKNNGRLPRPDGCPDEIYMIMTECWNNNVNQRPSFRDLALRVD

Sequence of JAK3 (P52333 822-1111): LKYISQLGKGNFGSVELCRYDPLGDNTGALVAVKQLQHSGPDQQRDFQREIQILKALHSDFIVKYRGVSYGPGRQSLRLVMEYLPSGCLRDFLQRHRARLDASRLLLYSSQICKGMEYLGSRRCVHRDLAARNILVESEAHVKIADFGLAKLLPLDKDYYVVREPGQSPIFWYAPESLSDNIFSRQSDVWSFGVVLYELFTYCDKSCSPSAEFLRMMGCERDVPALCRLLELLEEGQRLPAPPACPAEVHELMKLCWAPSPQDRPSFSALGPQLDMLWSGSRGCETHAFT

| IC50 (JAK3) | IC50 (JAK2) | IC50 (JAK3; given as range class) | IC50 (JAK2; given as range class) | Compound |
| --- | --- | --- | --- | --- |
| 0.0025 µM | > 1.5 µM |  |  | C=C(C)C(=O)Nc1cccc(-c2ncnc3[nH]cc(-c4nnc(C)o4)c23)c1 [Example 26, N-(3-(5-(5-Methyl-1,3,4-oxadiazol-2-yl)-7H-pyrrolo[2,3-d]pyrimidin-4-yl)phenyl)methacrylamide] |
|  |  | 0.01 to 0.5 µM | > 0.5 µM | CCOC(=O)c1c[nH]c2ncnc(-c3cccc4ccsc34)c12 [Example 1-61, ethyl 4-(1-benzothiophen-7-yl)-7H-pyrrolo[2,3-d]pyrimidine-5-carboxylate] |
| 0.00011 µM | > 1.5 µM |  |  | C=C(C)C(=O)Nc1cc(-c2ncnc3[nH]cc(C(=O)OCC)c23)ccc1OC [Example 4-17, ethyl 4-{4-methoxy-3-[(2-methylacryloyl)amino]phenyl}-7H-pyrrolo[2,3-d]pyrimidine-5-carboxylate] |
|  |  | 0.01 to 0.5 µM | > 0.5 µM | CCOC(=O)c1c[nH]c2ncnc(-c3ccc(C(=O)N(C)C)cc3)c12 [Example 1-13, ethyl 4-[4-(dimethylcarbamoyl)phenyl]-7H-pyrrolo[2,3-d]pyrimidine-5-carboxylate] |
|  |  | 0.01 to 0.5 µM | > 0.5 µM | C=C(C)C(=O)Nc1cccc(-c2ncnc3[nH]cc(-c4c(C)cc(C)cc4C)c23)c1 [Example 20-8, 2-methyl-N-{3-[5-(2,4,6-trimethylphenyl)-7H-pyrrolo[2,3-d]pyrimidin-4-yl]phenyll}prop-2-enamide] |
| 0.00011 µM | > 1.5 µM |  |  | C=C(C)C(=O)Nc1cc(-c2ncnc3[nH]cc(C(=O)OCC)c23)ccc1O [Example 4-31, ethyl 4-{4-hydroxy-3-[(2-methylacryloyl)amino]phenyl}-7H-pyrrolo[2,3-d]pyrimidine-5-carboxylate] |
|  |  | 0.01 to 0.5 µM | > 0.5 µM | CCOC(=O)c1c[nH]c2ncnc(-c3cccc(NC(=O)/C=C\c4ccccc4OC)c3)c12 [Example 5-23, ethyl 4-(3-{[(2Z)-3-(2-methoxyphenyl)prop-2-enoyl]amino}phenyl)-7H-pyrrolo[2,3-d]pyrimidine-5-carboxylate] |
|  |  | 0.01 to 0.5 µM | > 0.5 µM | c1ccc(Oc2cccc(-c3c[nH]c4ncnc(-c5ccccc5)c34)c2)cc1 [Example 32-4, 5-(3-phenoxyphenyl)-4-phenyl-7H-pyrrolo[2,3-d]pyrimidine] |
|  |  | 0.01 to 0.5 µM | > 0.5 µM | CCOC(=O)c1c[nH]c2ncnc(-c3cccc(NC(=O)C(C)(O)CO)c3)c12 (stereo not shown) [Example 18-2, Ethyl-4-(3-(2,3-dihydroxy-2-methylpropanamido)phenyl)-7H-pyrrolo[2,3-d]pyrimidine-5-carboxylate] |
| 0.00011 µM | > 1.5 µM |  |  | C=C(C)C(=O)Nc1ccc(F)c(-c2ncnc3[nH]cc(C(=O)OCC)c23)c1 [Example 4-18, ethyl 4-{2-fluoro-5-[(2-methylacryloyl)amino]phenyl}-7H-pyrrolo[2,3-d]pyrimidine-5-carboxylate] |
| 0.0024 µM | > 1.5 µM |  |  | CCOC(=O)c1c[nH]c2ncnc(-c3cccc(NC(=O)/C=C/c4c[nH]c5ccccc45)c3)c12 [Example 5-19, ethyl 4-(3-{[(2E)-3-(1H-indo1-3-yl)prop-2-enoyl]amino}phenyl)-7H-pyrrolo[2,3-d]pyrimidine-5-carboxylate] |
| 0.00061 µM | > 1.5 µM |  |  | C=C(CC)C(=O)Nc1cccc(-c2ncnc3[nH]cc(C(=O)OCC)c23)c1 [Example 4-8, ethyl 4-{3-[(2-methylidenebutanoyl)amino]phenyl}-7H-pyrrolo[2,3-d]pyrimidine-5-carboxylate] |
|  |  | 0.01 to 0.5 µM | > 0.5 µM | CCOC(=O)c1c[nH]c2ncnc(-c3ccc4c(c3)n(C)c(=O)n4C)c12 [Example 1-66, ethyl 4-(1,3-dimethyl-2-oxo-2,3-dihydro-1H-benzimidazol-5-yl)-7H-pyrrolo[2,3-d]pyrimidine-5-carboxylate] |
|  |  | 0.01 to 0.5 µM | > 0.5 µM | CCOC(=O)c1c[nH]c2ncnc(-c3ccc4c(c3)CN(C(=O)OC(C)(C)C)CCO4)c12 [Example 1-79, tent-butyl 7-[5-(ethoxycarbonyl)-7H-pyrrolo[2,3-d]pyrimidin-4-yl]-2,3-dihydro-1,4-benzoxazepine-4(5H)-carboxylate] |
